Assay results from PubChem BioAssay (NCI).
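Test compounds were applied to cells in 96-well plates for 48 hours at 5 doses. TGI: concentration producing complete growth inhibition.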

Tests used:
Assay in all cases: NCI anticancer screen, dose series, 48 h
NCI-H522 lung = test system: NCI-H522 lung
CCRF-CEM leukemia = test system: CCRF-CEM leukemia
DU-145 prostate = test system: DU-145 prostate
TK-10 renal = test system: TK-10 renal
A498 renal = test system: A498 renal
HS 578T breast = test system: HS 578T breast
NCI-H23 lung = test system: NCI-H23 lung
OVCAR-8 ovarian = test system: OVCAR-8 ovarian
SF-539 CNS = test system: SF-539 CNS
NCI-H460 lung = test system: NCI-H460 lung
786-0 renal = test system: 786-0 renal
RPMI-8226 leukemia = test system: RPMI-8226 leukemia
MCF7 breast = test system: MCF7 breast
NCI/ADR-RES ovarian = test system: NCI/ADR-RES ovarian
SN12C renal = test system: SN12C renal
MOLT-4 leukemia = test system: MOLT-4 leukemia
T-47D breast = test system: T-47D breast
OVCAR-5 ovarian = test system: OVCAR-5 ovarian
SF-268 CNS = test system: SF-268 CNS
RXF 393 renal = test system: RXF 393 renal
ACHN renal = test system: ACHN renal
MDA-N = test system: MDA-N
HL-60(TB) leukemia = test system: HL-60(TB) leukemia
U251 CNS = test system: U251 CNS
HT29 colon = test system: HT29 colon
COLO 205 colon = test system: COLO 205 colon
A549 NSCLC = test system: A549 NSCLC
BT-549 breast = test system: BT-549 breast
SW-620 colon = test system: SW-620 colon
SK-MEL-28 melanoma = test system: SK-MEL-28 melanoma
IGROV1 ovarian = test system: IGROV1 ovarian
OVCAR-4 ovarian = test system: OVCAR-4 ovarian
MDA-MB-435 = test system: MDA-MB-435
SF-295 CNS = test system: SF-295 CNS
HCT-116 colon = test system: HCT-116 colon
KM12 colon = test system: KM12 colon
SK-MEL-2 melanoma = test system: SK-MEL-2 melanoma
HCT-15 colon = test system: HCT-15 colon
HOP-62 NSCLC = test system: HOP-62 NSCLC
UACC-257 melanoma = test system: UACC-257 melanoma
UACC-62 melanoma = test system: UACC-62 melanoma
HOP-92 NSCLC = test system: HOP-92 NSCLC
SK-OV-3 ovarian = test system: SK-OV-3 ovarian
CAKI-1 renal = test system: CAKI-1 renal
EKVX NSCLC = test system: EKVX NSCLC
LOX IMVI melanoma = test system: LOX IMVI melanoma
SNB-19 CNS = test system: SNB-19 CNS
MDA-MB-231 breast = test system: MDA-MB-231 breast
PC-3 prostate = test system: PC-3 prostate
M14 melanoma = test system: M14 melanoma
SK-MEL-5 melanoma = test system: SK-MEL-5 melanoma
MALME-3M melanoma = test system: MALME-3M melanoma
OVCAR-3 ovarian = test system: OVCAR-3 ovarian
UO-31 renal = test system: UO-31 renal
K-562 leukemia = test system: K-562 leukemia
HCC-2998 colon = test system: HCC-2998 colon
SR leukemia = test system: SR leukemia

Measured: TGI

O=c1c2ccccc2nc2n1C(c1ccc([N+](=O)[O-])cc1)C2(c1ccccc1)c1ccccc1 (configuration not stated)
not listed: UO-31 renal | K-562 leukemia | HCC-2998 colon | SR leukemia
> 100 µM: all other assays above

Cc1ccc(C2SCC(=O)N2c2ccc(-c3ccc(-n4c(-c5ccccc5)nc5ccccc5c4=O)cc3)cc2)cc1 (configuration not stated)
not listed: SF-539 CNS | RXF 393 renal | HCT-116 colon
> 100 µM: all other assays above
